Experiment [1] deals with TERC 3′ end processing in HEK 293 with stable shRNA-mediated knockdown of PARN. Put plainly: TERC 3′ end processing (3′ RACE) in PARN-deficient HEK 293 cells. It is filed as cell-based. The note with it: PARN-deficient human cells (HEK 293, PARN shRNA knockdown), treated for 7 days; 10 µM and 100 μM; listed as entry 1 in table 1. How it is done:
The expected amplicons representing mature TERC versus extended forms are indicated (arrows). […] HEK 293 with stable shRNA-mediated knockdown of PARN were treated for 7 days with the Table 5, entry 1 compound.

Experiment [2] concerns the target T1, PAPD5 (Homo sapiens, UniProt Q8NDF8).
T1 construct: made in house
In words: High-throughput luminescence (KinaseGlo) RNA polyadenylation assay, ATP utilization by recombinant PAPD5. Type of experiment: biochemical. The note with it: for Fold-change determined at compound concentration 33 μM: 33 μM compound; for Fold-change determined at compound concentration 100 μM: higher = higher inhibition. An outline of the steps: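 Recombinant PAPD5 polyadenylates an oligonucleotide substrate using ATP, and remaining ATP is read by KinaseGlo luciferase luminescence. Compound was incubated for 2 h at room temperature, then with luciferase for 10 min.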

In experiment [3] the target is T1, PAPD5. In words: PAPD5 oligonucleotide extension assay (gel), compound dose response vs ATP. It is filed as biochemical. Particulars: recombinant PAPD5 in vitro. How it is done:
Candidate inhibitors are assayed at a range of concentrations in functional assays entailing extension of fluorescently-labelled RNA oligonucleotide substrates in the presence of PAPD5, followed by gel electrophoresis. […] In FIG. 5, a 20-mer 5′-fluorescently labelled RNA oligonucleotide was incubated with recombinant WT or mutant PAPD5 for 1 hour in the presence of varying concentrations of ATP, and products were visualized by polyacrylamide gel electrophoresis. It is expected that wildtype (WT) PAPD5 with PAPD5 inhibitors can have similar results. In fact, 4 compounds were selected to test the validation assay. The results were shown in FIG. 8, and were consistent with the expected results.
Each compound tested in the assay was tested at 0 μM, 5 μM, 10 μM, 50 μM, and 100 μM. At each concentration, each compound was tested at 0 μM, 10 μM, 100 μM, and 1000 μM concentration of ATP.

In the next experiment the target is T2, PARN exonuclease (Homo sapiens, UniProt O95453).
T2 sequence (O95453 1-639): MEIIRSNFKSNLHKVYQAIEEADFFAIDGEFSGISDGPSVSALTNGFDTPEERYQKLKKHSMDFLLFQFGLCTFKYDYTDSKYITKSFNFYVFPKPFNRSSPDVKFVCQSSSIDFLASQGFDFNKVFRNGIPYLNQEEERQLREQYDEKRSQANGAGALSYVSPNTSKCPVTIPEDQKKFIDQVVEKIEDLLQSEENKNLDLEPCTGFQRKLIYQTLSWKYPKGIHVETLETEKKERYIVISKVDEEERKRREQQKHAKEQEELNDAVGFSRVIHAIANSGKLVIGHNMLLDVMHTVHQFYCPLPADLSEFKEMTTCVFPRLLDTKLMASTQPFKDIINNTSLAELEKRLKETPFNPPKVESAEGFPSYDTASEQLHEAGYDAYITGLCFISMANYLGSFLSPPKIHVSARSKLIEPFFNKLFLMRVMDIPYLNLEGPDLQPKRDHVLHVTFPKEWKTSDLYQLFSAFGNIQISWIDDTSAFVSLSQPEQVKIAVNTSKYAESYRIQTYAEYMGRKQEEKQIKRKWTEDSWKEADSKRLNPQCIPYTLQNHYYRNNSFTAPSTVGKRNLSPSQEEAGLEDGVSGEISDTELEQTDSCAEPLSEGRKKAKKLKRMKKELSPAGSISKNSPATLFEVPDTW
Put plainly: Counter-screen for inhibition of PARN exonuclease. It is filed as biochemical. From the text: Although PARN and PAPD5 have opposing functions in TERC maturation and stabilization, PARN and PAPD5 are structurally related, and so molecules that inhibit one enzyme may inhibit the other.
In general terms: The purpose of a counterscreen is to sort out artefacts and off-target activity.

Where [4] appears, read: Table 4 (entries of Table 5), ratio of luminescence with inhibitor to DMSO.
[5] abbreviates: Table 4 (entries of Table 5), 100 μM compound, ratio of luminescence with inhibitor to DMSO.

T1 sequence (Q8NDF8 68-698 isoform Q8NDF8-5): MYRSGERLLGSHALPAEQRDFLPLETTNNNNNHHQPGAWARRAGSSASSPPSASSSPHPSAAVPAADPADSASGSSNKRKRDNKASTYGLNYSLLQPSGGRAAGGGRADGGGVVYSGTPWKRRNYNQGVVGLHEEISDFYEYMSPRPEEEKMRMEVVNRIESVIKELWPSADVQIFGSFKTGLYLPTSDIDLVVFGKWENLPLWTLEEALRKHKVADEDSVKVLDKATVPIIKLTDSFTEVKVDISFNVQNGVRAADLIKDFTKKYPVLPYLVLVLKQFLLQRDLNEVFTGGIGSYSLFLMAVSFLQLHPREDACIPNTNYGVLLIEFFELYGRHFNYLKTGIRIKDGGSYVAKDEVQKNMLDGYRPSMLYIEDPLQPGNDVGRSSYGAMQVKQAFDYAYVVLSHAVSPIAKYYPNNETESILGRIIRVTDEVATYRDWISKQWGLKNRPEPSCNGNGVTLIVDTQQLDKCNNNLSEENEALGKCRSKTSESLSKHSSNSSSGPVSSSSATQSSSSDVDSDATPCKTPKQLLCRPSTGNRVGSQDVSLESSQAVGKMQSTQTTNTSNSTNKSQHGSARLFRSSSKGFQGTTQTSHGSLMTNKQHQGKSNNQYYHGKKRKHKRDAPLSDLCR

Turning to `CCOC(=O)c1cnc2ccc(OC(F)(F)F)cc2c1Nc1ccccc1C(=O)O` [Entry 1, 2-[[3-ethoxycarbonyl-6-(trifluoromethoxy)quinolin-4-yl]amino]benzoic acid], the “restoration of TERC 3′ end processing / maturation (in words)” value in experiment [1] was “restoration of TERC maturation that is similar to that achieved by PAPD5 knockdown”. `O=C(O)c1ccc(N2C(=O)c3[nH]nc(-c4ccccc4)c3C2c2cccc(O)c2)cc1` (stereo not drawn) [Entry 242, 4-[4-(3-hydroxyphenyl)-6-oxo-3-phenyl-1,4-dihydropyrrolo[3,4-c]pyrazol-5-yl]benzoic acid]: at PAPD5 [2] (setting [4]), the “Fold-change determined at compound concentration 33 μM” value stood at 1.068. In addition, the “Fold-change determined at compound concentration 100 μM” value on PAPD5 [2] (setting [5]) is given as 1.283. The like results for `O=c1cc(-c2cccc3c2Sc2ccccc2S3)oc(N2CCOCC2)c1` [Entry 243, 2-morpholin-4-yl-6-thianthren-1-ylpyran-4-one] were, in that order, 1.324 and 1.471. For the compound `N#C/C(=C\c1ccc(-c2ccc(C(=O)O)cc2)o1)C(=O)Nc1ccccc1C(=O)O` [Entry 244, 2-[[(E)-3-[5-(4-carboxyphenyl)furan-2-yl]-2-cyanoprop-2-enoyl]amino]benzoic acid], at PAPD5 [2] (Table 4 (entries of Table 5), 10 μM compound, ratio of luminescence with inhibitor to DMSO), the “Fold-change determined at compound concentration 10 μM” value was found to be 1.32. In addition, the “Fold-change determined at compound concentration 33 μM” value at PAPD5 [2] (setting [4]) came to 1.737. Moreover, the “Fold-change determined at compound concentration 100 μM” value on PAPD5 [2] (setting [5]) is given as 2.572. In the case of `N#C/C(=C\c1ccc(-c2ccc(Cl)c(C(=O)O)c2)o1)c1nc2ccccc2[nH]1` [Entry 245, 5-[5-[(E)-2-(1H-benzimidazol-2-yl)-2-cyanoethenyl]furan-2-yl]-2-chlorobenzoic acid], the “Fold-change determined at compound concentration 33 μM” value at PAPD5 [2] (setting [4]) was 1.236. Further, the “Fold-change determined at compound concentration 100 μM” value at PAPD5 [2] (setting [5]) was determined as 1.638. `C=CCNC(=O)c1sc(=S)n2c1[nH]c(=O)c1cc3c(cc12)OCO3` [N-allyl-5-oxo-1-thioxo-4,5-dihydro[1,3]dioxolo[4,5-g][1,3]thiazolo[3,4-a]quinazoline-3-carboxamide]: at PAPD5 [2] (100 μM compound), the “fold change at 100 μM concentration in the assay” value stood at 3.1.

With `CCOC(=O)c1cnc2ccc(OC(F)(F)F)cc2c1Nc1ccccc1C(=O)O` [entry 1 in Table 5, 2-[[3-ethoxycarbonyl-6-(trifluoromethoxy)quinolin-4-yl]amino]benzoic acid], the “inhibition of PAPD5 (in words)” value on PAPD5 [3] is listed as “inhibit PAPD5”. Also, the “inhibition of PARN exonuclease (in words)” value on PARN exonuclease is given as “do not inhibit PARN”. As for `CCc1ccc2ncc(C(=O)c3ccc(C)c(C)c3)c(N3CCC(C(N)=O)CC3)c2c1` [entry 2 in Table 5, 1-[3-(3,4-dimethylbenzoyl)-6-ethylquinolin-4-yl]piperidine-4-carboxamide], the “inhibition of PAPD5 (in words)” value at PAPD5 [3] is listed as “inhibit PAPD5”. Moreover, the “inhibition of PARN exonuclease (in words)” value against PARN exonuclease was “do not inhibit PARN”.

The record behind these values is patent US12171755B2, “PAPD5 inhibitors and methods of use thereof” (Children's Medical Center Corporation, priority 2017, dated 2024).
